Assay results as given in paper PMC12280060, “Design of linear and cyclic peptide binders from protein sequence information” (Communications Chemistry, 2025).
No end group written: not given here.

Legend:
[1] = target: T1, semi-synthetic Ribonuclease (PDB ID 1SSC), immobilised as MBP-8xHis-1SSC (Bos taurus, UniProt P61823); assay: biochemical; assay type: binding
T1 construct: made in house; host or cells: E. coli BL21 (DE3) T1R
T1 sequence (P61823 27-138 limits assumed): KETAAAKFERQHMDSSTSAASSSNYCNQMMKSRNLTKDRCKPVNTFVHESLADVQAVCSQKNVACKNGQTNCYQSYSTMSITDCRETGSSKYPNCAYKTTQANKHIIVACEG

[2] = target: T2, semi-synthetic Ribonuclease (PDB ID 1SSC), MBP-8xHis fusion construct (UniProt P61823 27-138); assay: SPR; MBP-8xHis-1SSC immobilised to about 12000 RU by amine coupling on a CM5 chip; peptides as analytes, single-cycle kinetics, 2 nM to 20 uM; 25 °C; HBS-EP+ (10 mM HEPES pH 7.4, 3 mM EDTA, 150 mM NaCl, 0.05% Tween-20); Biacore 8K; 1:1 binding model; conditions: both partners purified
T2 construct: also called MBP-8xHis-1SSC; psfRNAseA; source: E. coli BL21 (DE3) T1R, purified (IMAC, size exclusion chromatography)
T2 sequence: T1 sequence (P61823 27-138 limits assumed)

Which Kd [1] does the source give for PYVPVHFDASV [PYVPVHFDASV] here?
Its Kd is 1220 nM.

B1: known peptide binder (11 residues) of the semi-synthetic Ribonuclease, PYVPVHFDASV (peptide)
peptide: PYVPVHFDASV
notes: also called WT; positive control; source: synthetic peptide
B1 was tested. Which Kd [2] did it give?
Its Kd is 1200 nM.
